Values of other authors in US6656473B2, “Tryptophan source from plants and uses thereof” (priority 2000, dated 2003).

Molecular target: plasma albumin (Homo sapiens, UniProt P02768)
Conditions: after absorption

plasma albumin, sequence (P02768 25-609): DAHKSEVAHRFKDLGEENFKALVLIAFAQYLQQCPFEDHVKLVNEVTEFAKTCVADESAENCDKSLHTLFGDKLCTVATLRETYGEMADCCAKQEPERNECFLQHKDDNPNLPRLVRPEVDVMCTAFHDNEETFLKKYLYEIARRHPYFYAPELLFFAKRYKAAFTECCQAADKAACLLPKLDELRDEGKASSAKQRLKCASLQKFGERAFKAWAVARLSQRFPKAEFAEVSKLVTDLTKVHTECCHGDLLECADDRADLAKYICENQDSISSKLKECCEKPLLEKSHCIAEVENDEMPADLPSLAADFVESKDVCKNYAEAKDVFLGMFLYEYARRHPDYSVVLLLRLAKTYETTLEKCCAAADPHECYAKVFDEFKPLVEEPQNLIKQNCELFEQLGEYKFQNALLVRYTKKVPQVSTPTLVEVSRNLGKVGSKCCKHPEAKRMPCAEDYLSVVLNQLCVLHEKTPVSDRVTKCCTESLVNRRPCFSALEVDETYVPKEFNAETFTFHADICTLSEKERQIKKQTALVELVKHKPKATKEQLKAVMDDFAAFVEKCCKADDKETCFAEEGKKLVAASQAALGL

- Share circulating as free tryptophan: 20%
- Share circulating in the blood bound to plasma albumin: approximately 80%
SMILES: N[C@@H](Cc1c[nH]c2ccccc12)C(=O)O [tryptophan]
